Measurements from article PMC9330537, “DCLK1 promotes colorectal cancer stemness and aggressiveness via the XRCC5/COX2 axis” (Theranostics, 2022).

Target: T1, DCLK1 (Doublecortin-like kinase 1) (Homo sapiens, UniProt O15075)
T1 sequence (O15075 1-740): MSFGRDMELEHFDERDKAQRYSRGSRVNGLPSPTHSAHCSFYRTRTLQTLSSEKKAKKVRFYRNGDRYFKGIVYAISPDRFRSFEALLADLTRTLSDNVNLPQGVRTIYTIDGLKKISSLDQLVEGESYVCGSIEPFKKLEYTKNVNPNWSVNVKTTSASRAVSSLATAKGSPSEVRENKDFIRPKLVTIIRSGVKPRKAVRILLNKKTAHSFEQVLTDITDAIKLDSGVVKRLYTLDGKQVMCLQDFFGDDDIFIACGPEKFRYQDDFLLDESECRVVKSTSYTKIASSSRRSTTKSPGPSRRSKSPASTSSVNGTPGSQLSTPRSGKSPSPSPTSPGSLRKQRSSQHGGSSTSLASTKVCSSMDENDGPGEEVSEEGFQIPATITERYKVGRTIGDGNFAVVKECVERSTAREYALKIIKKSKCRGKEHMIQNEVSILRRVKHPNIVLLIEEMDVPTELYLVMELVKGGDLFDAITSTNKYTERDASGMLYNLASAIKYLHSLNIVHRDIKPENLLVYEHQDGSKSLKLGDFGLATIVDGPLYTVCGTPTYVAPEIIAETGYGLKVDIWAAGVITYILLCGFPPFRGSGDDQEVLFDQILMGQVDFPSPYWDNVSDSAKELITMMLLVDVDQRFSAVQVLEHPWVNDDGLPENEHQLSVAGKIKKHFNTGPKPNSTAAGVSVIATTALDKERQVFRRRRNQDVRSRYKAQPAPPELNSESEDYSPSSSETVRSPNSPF
Assay: DCLK1 kinase activity assay, dose response
Format: biochemical

IC50: 143 nM
SMILES: COc1cc(N2CCN(C)CC2)ccc1Nc1ncc2c(n1)N(C)c1ccccc1C(=O)N2CC(F)(F)F [DCLK1-IN-1]
